ChEMBL document CHEMBL5620406, “Synthesis and biological evaluation of novel pyrazole amides as potent mitochondrial complex I inhibitors” (Eur J Med Chem, 2023)
Activity calls are given as the source filed them. The rule behind the calls is not given here.

Tests used:
[1] = Toxicity in NOD-SCID mouse xenografted with human KG-1 cells assessed as effect on liver damage at 5 mg/kg, ip qd administered 5 consecutive days per week for 24 days by H and E staining based analysis; assay type: organism-based; conditions: in vivo, 576 h, time 24 day
HCT-116 = test: Induction of mitochondrial dysfunction in human HCT-116 cells assessed as increase in extracellular acidification rate at 2 to 10 nM incubated for 24 hrs by Seahorse XFe24 analyzer; assay type: functional, cell-based; conditions: dose 2-10 nM
[2] = Toxicity in NOD-SCID mouse xenografted with human KG-1 cells assessed as effect on MPV at 5 mg/kg, ip qd administered 5 consecutive days per week for 24 days; assay type: organism-based; conditions: in vivo, 576 h, time 24 day
[3] = Acute toxicity in BALB/c mouse assessed as liver damage at 40 to 68 mg/kg, ip measured on day 14 by H and E staining based analysis; assay type: organism-based; conditions: in vivo, 336 h, dose 40-68 mg/kg, time 14 day
[4] = Toxicity in NOD-SCID mouse xenografted with human KG-1 cells assessed as effect on GLU level at 5 mg/kg, ip qd administered 5 consecutive days per week for 24 days; assay type: organism-based; conditions: in vivo, 576 h, time 24 day
[5] = Toxicity in NOD-SCID mouse xenografted with human KG-1 cells assessed as effect on TRIGL level at 5 mg/kg, ip qd administered 5 consecutive days per week for 24 days; assay type: organism-based; conditions: in vivo, 576 h, time 24 day
[6] = Acute toxicity in BALB/c mouse assessed as effect on GLU level at 68 mg/kg, ip measured on day 14; assay type: organism-based; conditions: in vivo, 336 h, time 14 day

| Compound | Activity [1] | Activity (HCT-116) | Activity [2] | Activity [3] | Activity [4] | Activity [5] | Activity [6] |
| --- | --- | --- | --- | --- | --- | --- | --- |
| Cc1cc(C(=O)Nc2ccc(C(F)(F)F)cc2)nn1Cc1cccc(N2CCN(C(=O)C3CC3)CC2)c1 | Non-Toxic | Active | Non-Toxic | Non-Toxic | Non-Toxic | Non-Toxic | Non-Toxic |
| Cc1cc(C(=O)Nc2ccc(OC(F)(F)F)cc2)nn1Cc1cccc(N2CCN(C(=O)C3CC3)CC2)c1 | Non-Toxic | Active | Non-Toxic | Non-Toxic | Non-Toxic | Non-Toxic | Non-Toxic |
